Laboratory results as given in US10059688B2, “Protein tyrosine kinase modulators and methods of use” (BETTA PHARMACEUTICALS CO., LTD., priority 2013, dated 2018).
Read-outs that look alike come from different tables or passages of the source.

What was measured:
EGFR (L858R) (h) = EGFR (L858R) (h) (Homo sapiens (Human), UniProt P00533, L858R); assay: Kinase assay, single dose inhibition (Millipore, 33P-ATP filter binding); type: biochemical; conditions: 0.1 μM test compound, 10 μM ATP; remaining activity relative to DMSO control = 100%
A431 (EGFR WT) cells = assay: Cell proliferation assay (MTS cell viability); type: cell-based; conditions: 3 days of exposure
Description: (§1) Effects of test compounds on in vitro proliferation were measured by MTS cell viability assay.
A431 cells were maintained in DMEM (Gibco) supplemented with 10% FBS, 100 units/mL penicillin, 100 units/mL streptomycin, and 2 mM glutamine.
(§2) Prepare test compounds in each well with a final medium volume of 200 μl;
Incubate for 3 days of exposure;
(§3) Prepare reagents following the instructions in the Cell Proliferation Assay kit (Promega);
(§4) Change to serum-free medium with a final volume of 100 l/well. Prepare a set of wells with medium only for background subtraction;
(§5) Add 20 μl MTS solution containing PMS to each well (final concentration of MTS will be 0.33 mg/ml);
(§6) Incubate 1 to 4 hours at 37° C. in a humidified, 5% CO2 atmosphere.
(§7) Record absorbance at 490 nm using VICTOR™ X5 plate reader (PerkinElmer).
(§8) All experimental points were set up in three wells and all experiments were repeated at least three times.

[1] = test system: HCC827 (EGFR Del) NSCLC cells; assay: Cell proliferation assay (MTS cell viability); type: cell-based; conditions: for IC50: HCC827 cells, 3 days of exposure, MTS; for GI50: HCC827, one set of studies, read-out: GI50, proliferation of HCC827 cells expressing EGFR Del
Description: as §1, §2
Incubate for 3 days of exposure;
as §3, §4, §5, §6, §7, §8

[2] = test system: H1975 (EGFR L858R/T790M) NSCLC cells; assay: Cell proliferation assay (MTS cell viability); type: cell-based; conditions: for IC50: H1975 cells, 3 days of exposure, MTS; for GI50: NCI-H1975, one set of studies, read-out: GI50, proliferation of H1975 cells expressing EGFR-L858R/T790M
EGFR (h) = EGFR (h) (Homo sapiens (Human), UniProt P00533); assay: Kinase assay, single dose inhibition (Millipore, 33P-ATP filter binding); type: biochemical; conditions: 0.1 μM test compound, 10 μM ATP; remaining activity relative to DMSO control = 100%
Description: (§9) Assay conditions included 10 μM ATP and 100 nM test compounds.
(§10) All reactions are initiated by the addition of the MgATP mix. After incubation for 40 minutes at room temperature, the reaction is stopped by the addition of 3% phosphoric acid solution. 10 μL of the reaction is then spotted onto a P30 filtermat and washed three times for 5 minutes in 75 mM phosphoric acid and once in methanol prior to drying and scintillation counting. This assay is performed by Millipore. The experiment is carried out in duplicate. The value for the control sample (DMSO) was set to 100%, and the values for the compound-treated samples were expressed as activity relative to the control sample.

EGFR (T790M) (h) = EGFR (T790M) (h) (Homo sapiens (Human), UniProt P00533, T790M); assay: as above; type: biochemical; conditions: 0.1 μM test compound, 10 μM ATP; remaining activity relative to DMSO control = 100%
Description: as §9, §10

EGFR (T790M, L858R) (h) = EGFR (T790M, L858R) (h) (Homo sapiens (Human), UniProt P00533, L858R/T790M); assay: as above; type: biochemical; conditions: 0.1 μM test compound, 10 μM ATP; remaining activity relative to DMSO control = 100%
[3] = test system: A549 (EGFR WT) NSCLC cells; assay: Cell proliferation assay (MTS cell viability); type: cell-based; conditions: for IC50: A549 cells, 3 days of exposure, MTS; for GI50: A549
Description: as §1
A549 cells were maintained in Ham's F12K medium (Gibco) supplemented with 10% FBS, 100 units/mL penicillin, 100 units/mL streptomycin, and 2 mM glutamine.
as §2
Incubate for 3 days of exposure;
as §3, §4, §5, §6, §7, §8

[4] = Phase I trial; cited from earlier work
[5] = test system: Ba/F3 cells harboring EGFR T790M in conjunction with different exon 19 deletion mutations; conditions: read-out: IC50 required to inhibit the growth of Ba/F3 cells harboring EGFR T790M; cited from earlier work
ALK (h) = ALK (h) (Homo sapiens (Human), UniProt Q9UM73); assay: Kinase assay, single dose inhibition (Millipore, 33P-ATP filter binding); type: biochemical; conditions: 0.1 μM test compound, 10 μM ATP; remaining activity relative to DMSO control = 100%
Chain of ALK (h) (Q9UM73 19-1620): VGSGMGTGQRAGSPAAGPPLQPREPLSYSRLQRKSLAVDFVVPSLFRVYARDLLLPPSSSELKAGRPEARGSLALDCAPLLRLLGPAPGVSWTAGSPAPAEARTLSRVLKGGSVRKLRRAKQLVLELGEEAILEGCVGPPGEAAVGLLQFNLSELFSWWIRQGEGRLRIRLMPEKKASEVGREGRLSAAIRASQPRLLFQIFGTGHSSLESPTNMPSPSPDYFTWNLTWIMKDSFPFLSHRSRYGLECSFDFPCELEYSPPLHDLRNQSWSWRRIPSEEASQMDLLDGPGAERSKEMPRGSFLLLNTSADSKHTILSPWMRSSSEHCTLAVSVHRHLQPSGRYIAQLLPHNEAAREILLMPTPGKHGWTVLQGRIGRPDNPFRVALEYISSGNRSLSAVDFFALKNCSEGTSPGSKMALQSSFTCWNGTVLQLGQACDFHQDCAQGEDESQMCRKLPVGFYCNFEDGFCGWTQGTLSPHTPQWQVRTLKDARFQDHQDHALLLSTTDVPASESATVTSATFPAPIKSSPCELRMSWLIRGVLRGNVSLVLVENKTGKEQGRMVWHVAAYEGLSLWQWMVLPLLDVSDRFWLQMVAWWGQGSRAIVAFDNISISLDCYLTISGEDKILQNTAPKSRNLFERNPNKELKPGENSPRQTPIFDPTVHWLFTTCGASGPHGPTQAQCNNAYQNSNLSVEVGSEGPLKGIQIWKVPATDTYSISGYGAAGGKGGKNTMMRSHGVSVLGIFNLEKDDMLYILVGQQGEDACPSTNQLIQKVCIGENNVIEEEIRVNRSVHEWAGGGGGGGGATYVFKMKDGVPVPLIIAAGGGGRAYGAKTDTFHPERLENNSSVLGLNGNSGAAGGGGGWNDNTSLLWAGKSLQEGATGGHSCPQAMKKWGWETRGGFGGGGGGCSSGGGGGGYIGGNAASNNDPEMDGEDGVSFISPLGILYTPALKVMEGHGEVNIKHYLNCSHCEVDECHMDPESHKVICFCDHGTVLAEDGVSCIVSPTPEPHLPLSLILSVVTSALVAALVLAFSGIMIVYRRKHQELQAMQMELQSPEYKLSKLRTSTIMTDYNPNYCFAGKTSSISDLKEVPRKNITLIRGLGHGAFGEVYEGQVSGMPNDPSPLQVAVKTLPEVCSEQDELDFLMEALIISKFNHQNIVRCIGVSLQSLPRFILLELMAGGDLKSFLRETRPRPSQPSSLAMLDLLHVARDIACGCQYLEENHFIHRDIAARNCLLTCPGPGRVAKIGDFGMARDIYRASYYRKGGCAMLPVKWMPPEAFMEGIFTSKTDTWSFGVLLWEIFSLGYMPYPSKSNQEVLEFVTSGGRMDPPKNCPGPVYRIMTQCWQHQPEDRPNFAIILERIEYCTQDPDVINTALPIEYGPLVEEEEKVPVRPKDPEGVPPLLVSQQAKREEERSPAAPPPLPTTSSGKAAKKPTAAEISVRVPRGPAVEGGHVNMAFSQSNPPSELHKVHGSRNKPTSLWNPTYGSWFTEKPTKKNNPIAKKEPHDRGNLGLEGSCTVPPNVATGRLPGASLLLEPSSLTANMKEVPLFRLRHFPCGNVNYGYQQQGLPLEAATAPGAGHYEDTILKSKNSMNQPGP
Description: as §9, §10

EGFR (ErbB1) T790M = EGFR (ErbB1) T790M (Homo sapiens (Human), UniProt P00533, T790M); assay: Kinase assay (IC50), fluorescence peptide assay; type: biochemical; conditions: 10 pt curve, 1 μM top concentration, Km ATP
Description: (§11) 2.5 μL—4× Test Compound or 100 nL 100× plus 2.4 μL kinase buffer;
5 μL—2× Peptide/Kinase Mixture;
5 μL—Development Reagent Solution;
(§12) 60-minute Development Reaction incubation at room temperature;
(§13) Read on fluorescence plate reader and analyze the data.

EGFR (ErbB1) T790M L858R = EGFR (ErbB1) T790M L858R (Homo sapiens (Human), UniProt P00533, L858R/T790M)
Description: as §11
5 μL—2× Peptide/Kinase Mixture;
5 μL—Development Reagent Solution;
as §12, §13

EGFR (ErbB1) = EGFR (ErbB1) (Homo sapiens (Human), UniProt P00533); assay: Kinase assay (IC50), fluorescence peptide assay; type: biochemical; conditions: EGFR WT; 10 pt curve, 10 μM top concentration, Km ATP
Description: as §11
5 μL—2× Peptide/Kinase Mixture;
5 μL—Development Reagent Solution;
as §12, §13

EGFR (ErbB1) L858R = EGFR (ErbB1) L858R (Homo sapiens (Human), UniProt P00533, L858R); assay: Kinase assay (IC50), fluorescence peptide assay; conditions: read-out: IC50 EGFR (ErbB1) L858R; 10 pt curve, 1 μM top concentration, Km ATP
[6] = test system: activated and resistant T790M forms of EGFR; EGFR WT; assay: In vitro cellular assays, statements across cell lines; type: cell-based; conditions: result in words
Description: as §1

ALK = ALK (Homo sapiens (Human), UniProt Q9UM73); assay: Kinase assay (IC50), fluorescence peptide assay; type: biochemical; conditions: 10 pt curve, 1 μM top concentration, Km ATP
Chain of ALK (Q9UM73 19-1620): as above
Description: as §11
5 μL—2× Peptide/Kinase Mixture;
5 μL—Development Reagent Solution;
as §12, §13

[7] = read-out: IC50 EGFR (ErbB1) T790M L858R, 10 pt curve, 1 μM top concentration, Km ATP

Compound	Activity (control) % EGFR (L858R) (h) (EGFR (L858R) (h))	IC50 (A431 (EGFR WT) cells; Homo sapiens, A-431, 72 h)	IC50 ([1]; Homo sapiens, 72 h)	IC50 ([2]; Homo sapiens, NCI-H1975, 72 h)	Activity (control) % EGFR (h) (EGFR (h))	Activity (control) % EGFR (T790M) (h) (EGFR (T790M) (h))	Activity (control) % EGFR (T790M, L858R) (h) (EGFR (T790M, L858R) (h))	IC50 ([3]; Homo sapiens, 72 h)	Activity (control) % ALK (h) (ALK (h))	activity against both activated and resistant T790M forms of EGFR in vitro cellular assays [6]	further results
COc1cc(N2CCN(C(C)=O)CC2)ccc1Nc1ncc(Cl)c(Nc2ccccc2C(=O)C(=O)N(C)C)n1 [Example 53, 2-(2-(2-(4-(4-acetylpiperazin-1-yl)-2-methoxyphenylamino)-5-chloropyrimidin-4-ylamino)phenyl)-N,N-dimethyl-2-oxoacetamide]	60%	50 nM	540 nM	210 nM	109%	21%	4%	> 3000 nM			
COc1cc(N2CCC(N(C)C)CC2)ccc1Nc1ncc(Cl)c(Nc2ccccc2C(=O)C(=O)N(C)C)n1 [Example 17, 2-(2-((5-chloro-2-((4-(4-(dimethylamino)piperidin-1-yl)-2-methoxyphenyl)amino)pyrimidin-4-yl)amino)phenyl)-N,N-dimethyl-2-oxoacetamide]		260 nM	1230 nM	860 nM				> 3000 nM			
CCOc1cc2ncc(C#N)c(Nc3ccc(OCc4ccccn4)c(Cl)c3)c2cc1NC(=O)/C=C/CN(C)C [HKI-272]											Cmax [4]: ~200 nM; IC50 [5]: 200 to 800 nM
C=CC(=O)Nc1ccc(OC)c(Nc2ncc(Cl)c(Nc3ccccc3C(=O)C(=O)N(CC)CC)n2)c1 [Example 131, N-(3-(5-chloro-4-(2-(2-(diethylamino)-2-oxoacetyl)phenylamino)pyrimidin-2-ylamino)-4-methoxyphenyl)acrylamide]	104%	750 nM	50 nM	10 nM	104%	82%	27%		9%		
C#Cc1cccc(Nc2ncnc3cc4c(cc23)OCCOCCOCCO4)c1 [Icotinib, reference compound]											IC50 (EGFR (ErbB1) T790M): > 1000 nM; IC50 (EGFR (ErbB1) T790M L858R; read-out: IC50, resistant mutant EGFR L858R/T790M): ≥ 16.6 nM; IC50 (EGFR (ErbB1) T790M L858R; [7]): > 1000 nM; IC50 (EGFR (ErbB1)): 1.23 nM; IC50 (EGFR (ErbB1) L858R): 2.02 nM
C=CC(=O)Nc1ccc(OC)c(Nc2ncc(Cl)c(Nc3ccccc3C(=O)C(=O)N(C)C)n2)c1 [Example 67, N-(3-(5-chloro-4-(2-(2-(dimethylamino)-2-oxoactyl)phenylamino)pyrimidin-2-ylamino)-4-methoxyphenyl)acrylamide]	85%	110 nM	20 nM	20 nM	105%	50%	9%	1580 nM	13%	potent activity	IC50 (EGFR (ErbB1) T790M): 18.9 nM; GI50 ([1]; Homo sapiens): 20 nM; GI50 ([2]; Homo sapiens): 20 nM; IC50 (EGFR (ErbB1) T790M L858R; [7]): 15.4 nM; IC50 (ALK): 17.3 nM; GI50 ([3]; Homo sapiens): > 1500 nM; IC50 (EGFR (ErbB1)): 273 nM; IC50 (EGFR (ErbB1) L858R): 500 nM
N-(5-(5-chloro-4-(2-(2-(dimethylamino)-2-oxoactyl)phenylamino)pyrimidin-2-ylamino)-4-methoxy-2-(4-methylpiperazin-1-yl)phenyl)acrylamide [Example 74]					110%	62%			9%	potent activity	IC50 (A431 (EGFR WT) cells): 50 nM; IC50 [1]: 30 nM; IC50 [2]: 50 nM; IC50 [3]: 620 nM
COc1cc(Nc2ncc(Cl)c(Nc3ccccc3C(=O)C(=O)N(C)C)n2)ccc1N1CCC(N(C)C)CC1 [Example 118, 2-(2-(5-chloro-2-(4-(4-(dimethylamino)piperidin-1-yl)-3-methoxyphenylamino)pyrimidin-4-ylamino)phenyl)-N,N-dimethyl-2-oxoacetamide]	29%	10 nM	20 nM	10 nM	82%	18%	2%	1890 nM	3%	potent activity	IC50 (EGFR (ErbB1) T790M): 4.92 nM; GI50 ([1]; Homo sapiens): 20 nM; GI50 ([2]; Homo sapiens): 10 nM; IC50 (EGFR (ErbB1) T790M L858R; [7]): 5.13 nM; IC50 (ALK): 10.8 nM; GI50 ([3]; Homo sapiens): > 1500 nM; IC50 (EGFR (ErbB1)): 77.6 nM; IC50 (EGFR (ErbB1) L858R): 158 nM
C=CC(=O)Nc1cc(Nc2ncc(Cl)c(Nc3ccccc3C(=O)C(=O)N(C)C)n2)c(OC)cc1F [Example 66, N-(5-(5-chloro-4-(2-(2-(dimethylamino)-2-oxoacetyl)phenylamino)pyrimidin-2-ylamino)-2-fluoro-4-methoxyphenyl)acrylamide]	104%		120 nM	50 nM	107%	66%	24%	> 3000 nM	35%	potent activity	
COc1cc(Nc2ncc(Cl)c(Nc3ccccc3C(=O)C(=O)N(C)C)n2)ccc1N1CCN(C)CC1 [Example 61, 2-(2-(5-chloro-2-(3-methoxy-4-(4-methylpiperazin-1-yl)phenylamino)pyrimidin-4-ylamino)phenyl)-N,N-dimethyl-2-oxoacetamide]	70%				101%	54%	13%		5%		IC50 (ALK): 12.2 nM
C=C(CN(C)CCN(C)C)C(=O)Nc1ccc(OC)c(Nc2ncc(Cl)c(Nc3ccccc3C(=O)C(=O)N(C)C)n2)c1 [Example 126, N-(3-(5-chloro-4-(2-(2-(dimethylamino)-2-oxoactyl)phenylamino)pyrimidin-2-ylamino)-4-methoxyphenyl)-2-(((2-(dimethylamino)ethyl)(methyl)amino)methyl)acrylamide]	47%	210 nM	20 nM	10 nM	93%	5%	2%		19%		
C=CC(=O)Nc1cc(Nc2ncc(Cl)c(Nc3ccccc3C(=O)C(=O)N(C)C)n2)ccc1OC [Example 65, N-(5-(5-chloro-4-(2-(2-(dimethylamino)-2-oxoacetyl)phenylamino)pyrimidin-2-ylamino)-2-methoxyphenyl)acrylamide]	102%		120 nM	20 nM	118%	80%	25%	> 3000 nM	19%	potent activity	
C=C(CN1CCOCC1)C(=O)Nc1cccc(Nc2ncc(Cl)c(Nc3ccccc3C(=O)C(=O)N(C)C)n2)c1 [Example 112, N-(3-(5-chloro-4-(2-(2-(dimethylamino)-2-oxoacetyl)phenylamino)pyrimidin-2-ylamino)phenyl)-2-(morpholinomethyl)acrylamide]	66%	100 nM	30 nM	10 nM	85%	14%	1%	40 nM	21%	potent activity	
